Results taken from the NIST ThermoML archive (doi:10.1016/j.jct.2016.01.028).

Assay: xn = mol fraction of the nth substance listed
Conditions: 102 kPa, Liquid; for speed of sound: Frequency=5 MHz, Single path-length method; for mass density: Vibrating tube method

CCCCC(=O)[O-].C[NH2+]CCO [2-hydroxy-N-methylethanaminium pentanoate] + O
Conditions | mass density [kg/m3] | speed of sound [m/s]
298.15 K, x1 = 0.0199 | 1013 | 1645.3
298.15 K, x1 = 0.05 | 1026 | 1705.8
298.15 K, x1 = 0.0988 | 1027.5 | 1670.2
298.15 K, x1 = 0.2023 | 1029.9 | 1644.9
298.15 K, x1 = 0.3 | 1028.5 | 1633.5
298.15 K, x1 = 0.4053 | 1025.2 | 1609.2
298.15 K, x1 = 0.5003 | 1021 | 1583.7
298.15 K, x1 = 0.5993 | 1019.1 | 1571.3
298.15 K, x1 = 0.8061 | 1013.3 | 1541.8
298.15 K, x1 = 1 | 1009.3 | 1516.3
303.15 K, x1 = 0.0199 | 1009.6 | 1644.5
303.15 K, x1 = 0.05 | 1022.7 | 1698.6
303.15 K, x1 = 0.0988 | 1024.2 | 1659.8
303.15 K, x1 = 0.2023 | 1026.8 | 1631.5
303.15 K, x1 = 0.3 | 1025.4 | 1618.8
303.15 K, x1 = 0.4053 | 1022.1 | 1594.7
303.15 K, x1 = 0.5003 | 1017.8 | 1568.6
303.15 K, x1 = 0.5993 | 1015.9 | 1556.3
303.15 K, x1 = 0.8061 | 1010.1 | 1526.5
303.15 K, x1 = 1 | 1006 | 1503.7
308.15 K, x1 = 0.0199 | 1006.1 | 1643.7
308.15 K, x1 = 0.05 | 1019.3 | 1691.5
308.15 K, x1 = 0.0988 | 1020.9 | 1649.5
308.15 K, x1 = 0.2023 | 1023.7 | 1618.1
308.15 K, x1 = 0.3 | 1022.3 | 1604.2
308.15 K, x1 = 0.4053 | 1018.9 | 1580.2
308.15 K, x1 = 0.5003 | 1014.6 | 1553.5
308.15 K, x1 = 0.5993 | 1012.7 | 1541.4
308.15 K, x1 = 0.8061 | 1006.9 | 1511.2
308.15 K, x1 = 1 | 1002.8 | 1486.5
313.15 K, x1 = 0.0199 | 1002.7 | 1642.9
313.15 K, x1 = 0.05 | 1015.9 | 1684.3
313.15 K, x1 = 0.0988 | 1017.7 | 1639.1
313.15 K, x1 = 0.2023 | 1020.7 | 1604.8
313.15 K, x1 = 0.3 | 1019.2 | 1589.6
313.15 K, x1 = 0.4053 | 1015.8 | 1565.7
313.15 K, x1 = 0.5003 | 1011.5 | 1538.4
313.15 K, x1 = 0.5993 | 1009.5 | 1526.5
313.15 K, x1 = 0.8061 | 1003.6 | 1495.9
313.15 K, x1 = 1 | 999.6 | 1471
318.15 K, x1 = 0.0199 | 999.3 | 1642.2
318.15 K, x1 = 0.05 | 1012.6 | 1677.2
318.15 K, x1 = 0.0988 | 1014.4 | 1628.8
318.15 K, x1 = 0.2023 | 1017.6 | 1591.4
318.15 K, x1 = 0.3 | 1016.1 | 1575
318.15 K, x1 = 0.4053 | 1012.7 | 1551.2
318.15 K, x1 = 0.5003 | 1008.3 | 1523.3
318.15 K, x1 = 0.5993 | 1006.3 | 1511.5
318.15 K, x1 = 0.8061 | 1000.4 | 1480.6
318.15 K, x1 = 1 | 996.3 | 1457
323.15 K, x1 = 0.0199 | 995.8 | 1641.4
323.15 K, x1 = 0.05 | 1009.2 | 1670
323.15 K, x1 = 0.0988 | 1011.1 | 1618.5
323.15 K, x1 = 0.2023 | 1014.6 | 1578
323.15 K, x1 = 0.3 | 1012.9 | 1560.4
323.15 K, x1 = 0.4053 | 1009.5 | 1536.7
323.15 K, x1 = 0.5003 | 1005.1 | 1508.2
323.15 K, x1 = 0.5993 | 1003.1 | 1496.6
323.15 K, x1 = 0.8061 | 997.2 | 1465.3
323.15 K, x1 = 1 | 993.1 | 1440
328.15 K, x1 = 0.0199 | 992.4 | 1640.6
328.15 K, x1 = 0.05 | 1005.9 | 1662.8
328.15 K, x1 = 0.0988 | 1007.8 | 1608.1
328.15 K, x1 = 0.2023 | 1011.5 | 1564.6
328.15 K, x1 = 0.3 | 1009.8 | 1545.7
328.15 K, x1 = 0.4053 | 1006.4 | 1522.2
328.15 K, x1 = 0.5003 | 1002 | 1493.1
328.15 K, x1 = 0.5993 | 999.9 | 1481.7
328.15 K, x1 = 0.8061 | 993.9 | 1450
328.15 K, x1 = 1 | 989.9 | 1424.6
333.15 K, x1 = 0.0199 | 988.9 | 1639.8
333.15 K, x1 = 0.05 | 1002.5 | 1655.7
333.15 K, x1 = 0.0988 | 1004.5 | 1597.8
333.15 K, x1 = 0.2023 | 1008.5 | 1551.2
333.15 K, x1 = 0.3 | 1006.7 | 1531.1
333.15 K, x1 = 0.4053 | 1003.2 | 1507.7
333.15 K, x1 = 0.5003 | 998.8 | 1478.1
333.15 K, x1 = 0.5993 | 996.7 | 1466.7
333.15 K, x1 = 0.8061 | 990.7 | 1434.6
333.15 K, x1 = 1 | 986.7 | 1412.8

CCCC(=O)[O-].C[NH2+]CCO [N-methyl-2-hydroxyethylammonium butanoate] + O
Conditions | mass density [kg/m3] | speed of sound [m/s]
298.15 K, x1 = 0.0199 | 1016.9 | 1645.6
298.15 K, x1 = 0.0497 | 1035 | 1762.6
298.15 K, x1 = 0.1005 | 1040.8 | 1773.4
298.15 K, x1 = 0.196 | 1050.5 | 1739.5
298.15 K, x1 = 0.3008 | 1052.5 | 1732
298.15 K, x1 = 0.4005 | 1049.1 | 1693.9
298.15 K, x1 = 0.509 | 1046.8 | 1674.1
298.15 K, x1 = 0.5968 | 1045 | 1659.6
298.15 K, x1 = 0.8069 | 1041.3 | 1630.4
298.15 K, x1 = 1 | 1035.3 | 1562.9
303.15 K, x1 = 0.0199 | 1013.1 | 1646.1
303.15 K, x1 = 0.0497 | 1032.4 | 1755.1
303.15 K, x1 = 0.1005 | 1037.9 | 1763.6
303.15 K, x1 = 0.196 | 1047.4 | 1725.4
303.15 K, x1 = 0.3008 | 1049.4 | 1717
303.15 K, x1 = 0.4005 | 1046 | 1678.1
303.15 K, x1 = 0.509 | 1043.6 | 1658.3
303.15 K, x1 = 0.5968 | 1041.7 | 1643.9
303.15 K, x1 = 0.8069 | 1038 | 1614.5
303.15 K, x1 = 1 | 1031.9 | 1548
308.15 K, x1 = 0.0199 | 1009.2 | 1646.7
308.15 K, x1 = 0.0497 | 1029.8 | 1747.6
308.15 K, x1 = 0.1005 | 1035 | 1753.8
308.15 K, x1 = 0.196 | 1044.4 | 1711.3
308.15 K, x1 = 0.3008 | 1046.3 | 1701.9
308.15 K, x1 = 0.4005 | 1042.8 | 1662.3
308.15 K, x1 = 0.509 | 1040.4 | 1642.4
308.15 K, x1 = 0.5968 | 1038.5 | 1628.1
308.15 K, x1 = 0.8069 | 1034.7 | 1598.6
308.15 K, x1 = 1 | 1028.6 | 1529.7
313.15 K, x1 = 0.0199 | 1005.3 | 1647.3
313.15 K, x1 = 0.0497 | 1027.2 | 1740
313.15 K, x1 = 0.1005 | 1032 | 1744
313.15 K, x1 = 0.196 | 1041.3 | 1697.2
313.15 K, x1 = 0.3008 | 1043.2 | 1686.8
313.15 K, x1 = 0.4005 | 1039.6 | 1646.5
313.15 K, x1 = 0.509 | 1037.2 | 1626.6
313.15 K, x1 = 0.5968 | 1035.3 | 1612.4
313.15 K, x1 = 0.8069 | 1031.4 | 1582.7
313.15 K, x1 = 1 | 1025.2 | 1511.9
318.15 K, x1 = 0.0199 | 1001.5 | 1647.8
318.15 K, x1 = 0.0497 | 1024.6 | 1732.5
318.15 K, x1 = 0.1005 | 1029.1 | 1734.2
318.15 K, x1 = 0.196 | 1038.3 | 1683.1
318.15 K, x1 = 0.3008 | 1040.1 | 1671.7
318.15 K, x1 = 0.4005 | 1036.4 | 1630.6
318.15 K, x1 = 0.509 | 1034 | 1610.7
318.15 K, x1 = 0.5968 | 1032.1 | 1596.6
318.15 K, x1 = 0.8069 | 1028.1 | 1566.8
318.15 K, x1 = 1 | 1021.9 | 1499.4
323.15 K, x1 = 0.0199 | 997.6 | 1648.4
323.15 K, x1 = 0.0497 | 1022 | 1725
323.15 K, x1 = 0.1005 | 1026.2 | 1724.5
323.15 K, x1 = 0.196 | 1035.2 | 1669
323.15 K, x1 = 0.3008 | 1036.9 | 1656.6
323.15 K, x1 = 0.4005 | 1033.3 | 1614.8
323.15 K, x1 = 0.509 | 1030.9 | 1594.8
323.15 K, x1 = 0.5968 | 1028.9 | 1580.8
323.15 K, x1 = 0.8069 | 1024.9 | 1550.9
323.15 K, x1 = 1 | 1018.5 | 1481.3
328.15 K, x1 = 0.0199 | 993.7 | 1648.9
328.15 K, x1 = 0.0497 | 1019.4 | 1717.5
328.15 K, x1 = 0.1005 | 1023.2 | 1714.7
328.15 K, x1 = 0.196 | 1032.2 | 1654.9
328.15 K, x1 = 0.3008 | 1033.8 | 1641.6
328.15 K, x1 = 0.4005 | 1030.1 | 1599
328.15 K, x1 = 0.509 | 1027.7 | 1579
328.15 K, x1 = 0.5968 | 1025.6 | 1565.1
328.15 K, x1 = 0.8069 | 1021.6 | 1535
328.15 K, x1 = 1 | 1015.2 | 1467.2
333.15 K, x1 = 0.0199 | 989.9 | 1649.5
333.15 K, x1 = 0.0497 | 1016.8 | 1709.9
333.15 K, x1 = 0.1005 | 1020.3 | 1704.9
333.15 K, x1 = 0.196 | 1029.1 | 1640.8
333.15 K, x1 = 0.3008 | 1030.7 | 1626.5
333.15 K, x1 = 0.4005 | 1026.9 | 1583.1
333.15 K, x1 = 0.509 | 1024.5 | 1563.1
333.15 K, x1 = 0.5968 | 1022.4 | 1549.3
333.15 K, x1 = 0.8069 | 1018.3 | 1519.1
333.15 K, x1 = 1 | 1011.9 | 1451.2
